The subject of experiment [1] is Staphylococcus aureus 108/83. In words: MIC, micro-broth dilution test according to DIN 58 940 (Part 8). The experiment is classed as cell-based. Particulars: for MIC: Staphylococcus aureus, read-out: MIC, Staphylococcus aureus 108/83. As for the experimental part:
(§1) The minimum inhibiting concentration (MIC) of the compounds was tested, in a micro-broth dilution test according to DIN 58 940 (Part 8), against the following bacterial strains: Staphylococcus aureus, strains 8325-4 (a sensitive Staphylococcus aureus strain which is representative of the species), NCTC 6571 (a sensitive international control strain), 108/83 (an "old" MRSA without quinolone-resistance), 134/94 (a "new" MRSA, with quinolone-resistance), Staphylococcus epidermidis CCM 2124 (a sensitive control strain), Enterococcus faecium 70/90 (a vancomycin-resistant strain) and 64/3 (a sensitive strain). The known substances vancomycin, teicoplanin and ciprofloxacin were used for comparison in the tests, even though they are structurally different.

The subject of experiment [2] is Staphylococcus aureus 134/94. The experiment is described as above. The experiment is classed as cell-based. Particulars: for MIC: Staphylococcus aureus, read-out: MIC, Staphylococcus aureus 134/94. The procedure:
as §1

The subject of experiment [3] is Staphylococcus aureus 8325-4. Described as above. The experiment is classed as cell-based. As for the experimental part: as §1
For experiment [4] the following is noted: background section; cited from earlier work.
Experiment [5] concerns Enterococcus faecium 64/3. In words: MIC, micro-broth dilution test according to DIN 58 940 (Part 8). The experiment is classed as cell-based. The note with it: for MIC: Enterococcus faecium. The procedure: as §1, with “strain).” for “strain). The known substances vancomycin, teicoplanin and ciprofloxacin were used for comparison in the tests, even though they are structurally different.”

The test system of experiment [6] is Staphylococcus aureus NCTC 6571. Described as above. Particulars: NCTC6571, sensitive international control strain. The experiment is classed as cell-based. As for the experimental part:
as §1

For experiment [7], the system named is Enterococcus faecium 70/90. Described as above. The experiment is classed as cell-based. Particulars: for MIC: Enterococcus faecium. The procedure: as §1
In experiment [8] the test system is Staphylococcus epidermidis CCM 2124. The experiment is described as above. The experiment is classed as cell-based. Particulars: for MIC: Staphylococcus epidermidis. As for the experimental part:
as §1

[9] abbreviates: "old" MRSA, without quinolone-resistance.
Where [10] appears, read: "new" MRSA, with quinolone-resistance.
The mark [11] stands for this setting: 83254, sensitive Staphylococcus aureus strain, representative of the species, read-out: MIC, Staphylococcus aureus 8325-4.
Where [12] appears, read: 64/3, sensitive strain, read-out: MIC, Enterococcus faecium 64/3.
The mark [13] stands for this setting: 70/90, vancomycin-resistant strain, read-out: MIC, Enterococcus faecium 70/90.
Setting [14] is: CCM2124, sensitive control strain, read-out: MIC, Staphylococcus epidermidis CCM 2124.
Setting [15] is: Staphylococcus aureus, 83254, read-out: MIC, Staphylococcus aureus 8325-4.
Setting [16] is: CCM2124, read-out: MIC, Staphylococcus epidermidis CCM 2124.

Values after ≈ are worked out from the molar mass of the structure shown. Where two headings read alike, the source gives them in different places. A value given as a limit tells only on which side of the number the result lay.

These results are taken from patent publication US6124290A, “Polycyclic phthalazine compounds and their use” (Gruenenthal GmbH, priority 1996, dated 2000).

Regarding `CCC(C(=O)O)n1ncc2cc3c(c(O)c2c1=O)-c1c(O)c2c(c(OC)c1CC3)C(=O)c1c(cc(O)c(C)c1O)C2=O` (racemic) [Substance 4], the MIC in experiment [1] (setting [9]) amounted to 32 µg/mL (≈ 55.9 µM); in experiment [2] (setting [10]), 16 µg/mL (≈ 27.9 µM); in experiment [3] (setting [11]), 63 µg/mL (≈ 110 µM).
As for `COc1c2c(c(O)c3c1C(=O)c1c(cc(O)c(C)c1O)C3=O)-c1c(cc3c(c1O)C(=O)OC3O)CC2` (stereo not shown) [Madurahydroxylactone, 3,9,11,14,15-pentahydroxy-10-methyl-7-methoxy-1,8,13-trioxo-1,3,5,6,8,13-hexahydro-naphthaceno-[1,2-f]-benzoisofurane], the biological efficacy entry in experiment [4] is reported as “unsatisfactory biological efficacy”.
As to `COc1c2c(c(O)c3c1C(=O)c1c(cc(O)c(C)c1O)C3=O)-c1c(cc3cnn(-c4ccc(C(=O)O)cc4)c(=O)c3c1O)CC2` [Substance 1], the MIC in experiment [5] (setting [12]) is 500 µg/mL (≈ 824 µM); in experiment [1] (setting [9]), 250 µg/mL (≈ 412 µM); in experiment [2] (setting [10]) it was 500 µg/mL (≈ 824 µM); in experiment [6], under 125 µg/mL; in experiment [3] (setting [11]), 500 µg/mL (≈ 824 µM); in experiment [7] (setting [13]) it was 500 µg/mL (≈ 824 µM). Further, the MIC in experiment [8] (setting [14]) was under 125 µg/mL.
In the case of `COc1c2c(c(O)c3c1C(=O)c1c(cc(O)c(C)c1O)C3=O)-c1c(cc3cnn(CC(=O)O)c(=O)c3c1O)CC2` [Substance 3, 10,12, 15,16-tetrahydroxy-8-methoxy-2-carboxynmethyl-11-methyl-1,9,14-trioxo-1,2,6,7,9,14-hexahydro-naphthaceno-[1,2-g]-phthalazine], the MIC was 500 µg/mL (≈ 918 µM) in experiment [5] (setting [12]); 63 µg/mL (≈ 116 µM) in experiment [1] (setting [9]); 250 µg/mL (≈ 459 µM) in experiment [2] (setting [10]); under 125 µg/mL in experiment [6]; 63 µg/mL (≈ 116 µM) in experiment [3] (setting [11]); 2000 µg/mL (≈ 3670 µM) in experiment [7] (setting [13]). Moreover, in experiment [8] (setting [14]), the MIC was under 125 µg/mL.
As for `O=C(O)c1cn(C2CC2)c2cc(N3CCNCC3)c(F)cc2c1=O` [ciprofloxacin], the MIC came out at 250 µg/mL (≈ 754 µM) in experiment [1] (MRSA); 16000 µg/mL (≈ 48300 µM) in experiment [2] (MRSA); 250 µg/mL (≈ 754 µM) in experiment [3] (setting [15]); 1000 µg/mL (≈ 3020 µM) in experiment [7] (70/90, read-out: MIC, Enterococcus faecium 70/90); 250 µg/mL (≈ 754 µM) in experiment [8] (setting [16]).
With `CN[C@H](CC(C)C)C(=O)N[C@H]1C(=O)N[C@@H](CC(N)=O)C(=O)N[C@H]2C(=O)N[C@H]3C(=O)N[C@H](C(=O)N[C@H](C(=O)O)c4cc(O)cc(O)c4-c4cc3ccc4O)[C@H](O)c3ccc(c(Cl)c3)Oc3cc2cc(c3O[C@@H]2O[C@H](CO)[C@@H](O)[C@H](O)[C@H]2O[C@H]2C[C@](C)(N)[C@H](O)[C@H](C)O2)Oc2ccc(cc2Cl)[C@H]1O` [vancomycin], the MIC in experiment [5] (64/3, read-out: MIC, Enterococcus faecium 64/3) is under 250 µg/mL; in experiment [1] (MRSA) it was 500 µg/mL (≈ 345 µM); in experiment [2] (MRSA), 500 µg/mL (≈ 345 µM); in experiment [3] (setting [15]), 500 µg/mL (≈ 345 µM); in experiment [8] (setting [16]), 500 µg/mL (≈ 345 µM).
Consider teicoplanin, for which the “MIC, Enterococcus faecium 64/3” value in experiment [5] (sensitive strain) was under 250 µg/mL. For the same compound, the “MIC, Staphylococcus aureus 108/83” value in experiment [1] (setting [9]) was determined as 500 µg/mL. Further, in experiment [2] (setting [10]), the “MIC, Staphylococcus aureus 134/94” value was 500 µg/mL. In experiment [3] (sensitive Staphylococcus aureus strain, representative of the species), the “MIC, Staphylococcus aureus 8325-4” value came to 500 µg/mL. Moreover, in experiment [7] (vancomycin-resistant strain), the “MIC, Enterococcus faecium 70/90” value is 256000 µg/mL. The “MIC, Staphylococcus epidermidis CCM 2124” value in experiment [8] (sensitive control strain) stood at 500 µg/mL.
